Results published in PubChem BioAssay AID1963827 (Molecular Pharmacology Branch, DTP, NCI, 2024).

Test system: 994946-033-R-J1-PDC complex spheroid viability
Assay: Anticancer human tumor 994946-033-R-J1-PDC patient-derived melanoma cell line growth inhibition [POLQ]
Conditions: for IC50: curve of first compound; for viability, T/C: stronger effect = lower value
How it was run: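 Patient-derived tumour cells were co-cultured with HUVEC and mesenchymal stem cells as multicellular spheroids at 37 °C. They were treated with POLQ inhibitors (novobiocin, ART-558, RP6685) alone or combined with other agents. Top concentrations were at or near clinical Cmax (otherwise 10 microM; SN-38 at 1 microM), decreasing in half-log steps.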

[1] = second compound 0.0316 µM, first compound 0.0316 µM
[2] = second compound 0.0316 µM, first compound 0.1 µM
[3] = second compound 0.0316 µM, first compound 0.316 µM
[4] = second compound 0.0316 µM, first compound 1 µM
[5] = second compound 0.0316 µM, first compound 3.16 µM
[6] = second compound 0.0316 µM, first compound 10 µM
[7] = second compound 0.1 µM, first compound 0.0316 µM
[8] = second compound 0.1 µM, first compound 0.1 µM
[9] = second compound 0.1 µM, first compound 0.316 µM
[10] = second compound 0.1 µM, first compound 1 µM
[11] = second compound 0.1 µM, first compound 3.16 µM
[12] = second compound 0.1 µM, first compound 10 µM
[13] = second compound 0.316 µM, first compound 0.0316 µM
[14] = second compound 0.316 µM, first compound 0.1 µM
[15] = second compound 0.316 µM, first compound 0.316 µM
[16] = second compound 0.316 µM, first compound 1 µM
[17] = second compound 0.316 µM, first compound 3.16 µM
[18] = second compound 0.316 µM, first compound 10 µM
[19] = second compound 1 µM, first compound 0.0316 µM
[20] = second compound 1 µM, first compound 0.1 µM
[21] = second compound 1 µM, first compound 0.316 µM
[22] = second compound 1 µM, first compound 1 µM
[23] = second compound 1 µM, first compound 3.16 µM
[24] = second compound 1 µM, first compound 10 µM
[25] = second compound 3.16 µM, first compound 0.0316 µM
[26] = second compound 3.16 µM, first compound 0.1 µM
[27] = second compound 3.16 µM, first compound 0.316 µM
[28] = second compound 3.16 µM, first compound 1 µM
[29] = second compound 3.16 µM, first compound 3.16 µM
[30] = second compound 3.16 µM, first compound 10 µM
[31] = second compound 10 µM, first compound 0.0316 µM
[32] = second compound 10 µM, first compound 0.1 µM
[33] = second compound 10 µM, first compound 0.316 µM
[34] = second compound 10 µM, first compound 1 µM
[35] = second compound 10 µM, first compound 3.16 µM
[36] = second compound 10 µM, first compound 10 µM
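Also: spheroids exposed to drugs for 7 days.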
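For viability, T/C in this document: 100% = DMSO vehicle treated spheroids.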

## CC1COCCN1c1cc(C2(O)CC3CCC(C2)O3)c2cnn(-c3ccn[nH]3)c2n1 (stereo not drawn) + Cc1cccc(N(C)C(=O)C2C(O)CCN2c2nc(C)cc(C(F)(F)F)c2C#N)c1
Second compound 0.0316 µM
  IC50: < 31.6 nM
Second compound 0.1 µM
  IC50: 37.9 nM
Second compound 0.316 µM
  IC50: < 31.6 nM
Second compound 1 µM
  IC50: < 31.6 nM
Second compound 3.16 µM
  IC50: 33.3 nM
Second compound 10 µM
  IC50: < 31.6 nM
[1]
  viability, T/C: 49.5%
[2]
  viability, T/C: 34.5%
[3]
  viability, T/C: 14.3%
[4]
  viability, T/C: 15.3%
[5]
  viability, T/C: 14.6%
[6]
  viability, T/C: 5.33%
[7]
  viability, T/C: 52.7%
[8]
  viability, T/C: 37%
[9]
  viability, T/C: 18.8%
[10]
  viability, T/C: 12.3%
[11]
  viability, T/C: 12%
[12]
  viability, T/C: 4%
[13]
  viability, T/C: 46.8%
[14]
  viability, T/C: 26.4%
[15]
  viability, T/C: 14.6%
[16]
  viability, T/C: 18.4%
[17]
  viability, T/C: 12.7%
[18]
  viability, T/C: 2.62%
[19]
  viability, T/C: 42%
[20]
  viability, T/C: 23.1%
[21]
  viability, T/C: 20.9%
[22]
  viability, T/C: 17%
[23]
  viability, T/C: 12.5%
[24]
  viability, T/C: 3.16%
[25]
  viability, T/C: 51.6%
[26]
  viability, T/C: 27.2%
[27]
  viability, T/C: 23.2%
[28]
  viability, T/C: 13.5%
[29]
  viability, T/C: 12.7%
[30]
  viability, T/C: 10.9%
[31]
  viability, T/C: 47.1%
[32]
  viability, T/C: 38.4%
[33]
  viability, T/C: 18.7%
[34]
  viability, T/C: 23%
[35]
  viability, T/C: 9.14%
[36]
  viability, T/C: 5.05%

## COc1ccc([C@@H](O)c2cc(-c3ncnc4cc(N5CCOCC5)ccc34)c(F)cc2Cl)nn1 + Nc1ccc(C#CCN(C(=O)Cc2ncc(C(F)(F)F)cc2C(F)(F)F)c2ccc(F)cc2)nn1
Second compound 0.0316 µM
  IC50: 4980 nM
Second compound 0.1 µM
  IC50: 6830 nM
Second compound 0.316 µM
  IC50: 3130 nM
Second compound 1 µM
  IC50: > 10000 nM
Second compound 3.16 µM
  IC50: 7070 nM
Second compound 10 µM
  IC50: 4520 nM
[1]
  viability, T/C: 90.3%
[2]
  viability, T/C: 114%
[3]
  viability, T/C: 75.5%
[4]
  viability, T/C: 89%
[5]
  viability, T/C: 52.8%
[6]
  viability, T/C: 45.2%
[7]
  viability, T/C: 91.6%
[8]
  viability, T/C: 112%
[9]
  viability, T/C: 99.4%
[10]
  viability, T/C: 98.7%
[11]
  viability, T/C: 62%
[12]
  viability, T/C: 44.1%
[13]
  viability, T/C: 93.3%
[14]
  viability, T/C: 111%
[15]
  viability, T/C: 116%
[16]
  viability, T/C: 90.6%
[17]
  viability, T/C: 50.7%
[18]
  viability, T/C: 37.3%
[19]
  viability, T/C: 114%
[20]
  viability, T/C: 117%
[21]
  viability, T/C: 115%
[22]
  viability, T/C: 61.4%
[23]
  viability, T/C: 64.5%
[24]
  viability, T/C: 55.1%
[25]
  viability, T/C: 109%
[26]
  viability, T/C: 87%
[27]
  viability, T/C: 102%
[28]
  viability, T/C: 91.3%
[29]
  viability, T/C: 67.5%
[30]
  viability, T/C: 42.5%
[31]
  viability, T/C: 116%
[32]
  viability, T/C: 126%
[33]
  viability, T/C: 102%
[34]
  viability, T/C: 75.7%
[35]
  viability, T/C: 62.2%
[36]
  viability, T/C: 34%

## CC1COCCN1c1cc(C2(S(C)(=N)=O)CC2)nc(-c2ccnc3[nH]ccc23)n1 (stereo not drawn) + Cc1cccc(N(C)C(=O)C2C(O)CCN2c2nc(C)cc(C(F)(F)F)c2C#N)c1
Second compound 0.0316 µM
  IC50: > 10000 nM
Second compound 0.1 µM
  IC50: 4260 nM
Second compound 0.316 µM
  IC50: 4200 nM
Second compound 1 µM
  IC50: 1870 nM
Second compound 3.16 µM
  IC50: > 10000 nM
Second compound 10 µM
  IC50: 6240 nM
[1]
  viability, T/C: 103%
[2]
  viability, T/C: 111%
[3]
  viability, T/C: 112%
[4]
  viability, T/C: 61.2%
[5]
  viability, T/C: 59.8%
[6]
  viability, T/C: 46.8%
[7]
  viability, T/C: 71.6%
[8]
  viability, T/C: 113%
[9]
  viability, T/C: 109%
[10]
  viability, T/C: 82.2%
[11]
  viability, T/C: 58.8%
[12]
  viability, T/C: 28.4%
[13]
  viability, T/C: 110%
[14]
  viability, T/C: 117%
[15]
  viability, T/C: 104%
[16]
  viability, T/C: 78.8%
[17]
  viability, T/C: 48.8%
[18]
  viability, T/C: 48.4%
[19]
  viability, T/C: 101%
[20]
  viability, T/C: 92%
[21]
  viability, T/C: 76.2%
[22]
  viability, T/C: 64.6%
[23]
  viability, T/C: 36.8%
[24]
  viability, T/C: 33.7%
[25]
  viability, T/C: 94.5%
[26]
  viability, T/C: 110%
[27]
  viability, T/C: 97.5%
[28]
  viability, T/C: 53.5%
[29]
  viability, T/C: 53.2%
[30]
  viability, T/C: 52.8%
[31]
  viability, T/C: 96.5%
[32]
  viability, T/C: 103%
[33]
  viability, T/C: 92.2%
[34]
  viability, T/C: 75.1%
[35]
  viability, T/C: 64.3%
[36]
  viability, T/C: 41.3%

## COc1cccc(OCCCN)c1-c1cc(Nc2cnc(C#N)cn2)n[nH]1 + Cc1cccc(N(C)C(=O)C2C(O)CCN2c2nc(C)cc(C(F)(F)F)c2C#N)c1
Second compound 0.0316 µM
  IC50: 25.6 nM
Second compound 0.1 µM
  IC50: 14.7 nM
Second compound 0.316 µM
  IC50: 17.7 nM
Second compound 1 µM
  IC50: 9.64 nM
Second compound 3.16 µM
  IC50: 14.3 nM
Second compound 10 µM
  IC50: 79.8 nM
Second compound 0.0316 µM, first compound 0.00316 µM
  viability, T/C: 96%
Second compound 0.0316 µM, first compound 0.01 µM
  viability, T/C: 93.4%
[1]
  viability, T/C: 40.3%
[2]
  viability, T/C: 22.7%
[3]
  viability, T/C: 22%
[4]
  viability, T/C: 17.4%
Second compound 0.1 µM, first compound 0.00316 µM
  viability, T/C: 99.8%
Second compound 0.1 µM, first compound 0.01 µM
  viability, T/C: 60.3%
[7]
  viability, T/C: 29.9%
[8]
  viability, T/C: 19%
[9]
  viability, T/C: 19.1%
[10]
  viability, T/C: 18.6%
Second compound 0.316 µM, first compound 0.00316 µM
  viability, T/C: 76.6%
Second compound 0.316 µM, first compound 0.01 µM
  viability, T/C: 68.5%
[13]
  viability, T/C: 31.3%
[14]
  viability, T/C: 20.1%
[15]
  viability, T/C: 24.2%
[16]
  viability, T/C: 12.4%
Second compound 1 µM, first compound 0.00316 µM
  viability, T/C: 120%
Second compound 1 µM, first compound 0.01 µM
  viability, T/C: 44.5%
[19]
  viability, T/C: 36.8%
[20]
  viability, T/C: 33.1%
[21]
  viability, T/C: 27%
[22]
  viability, T/C: 18.6%
Second compound 3.16 µM, first compound 0.00316 µM
  viability, T/C: 88.9%
Second compound 3.16 µM, first compound 0.01 µM
  viability, T/C: 51%
[25]
  viability, T/C: 46.8%
[26]
  viability, T/C: 18.1%
[27]
  viability, T/C: 28.9%
[28]
  viability, T/C: 18.5%
Second compound 10 µM, first compound 0.00316 µM
  viability, T/C: 68%
Second compound 10 µM, first compound 0.01 µM
  viability, T/C: 57.6%
[31]
  viability, T/C: 86.7%
[32]
  viability, T/C: 44.9%
[33]
  viability, T/C: 38.2%
[34]
  viability, T/C: 23.5%
